Tests used:
Beta-secretase 1 [1] = molecular target: T1, Beta-secretase 1 (Homo sapiens, UniProt P56817); test: Inhibition of BACE1 expressed in HEK293 cells at 100 uM; format: cell-based
Beta-secretase 1 [2] = molecular target: T1, Beta-secretase 1; test: Inhibition of human recombinant BACE1 at 0.2 uM
Beta-secretase 1 [3] = molecular target: T1, Beta-secretase 1; test: Inhibition of human recombinant BACE1 at 2 uM
Beta-secretase 1 [4] = molecular target: T1, Beta-secretase 1; test: Inhibition of human recombinant BACE1

T1 sequence (P56817 whole entry): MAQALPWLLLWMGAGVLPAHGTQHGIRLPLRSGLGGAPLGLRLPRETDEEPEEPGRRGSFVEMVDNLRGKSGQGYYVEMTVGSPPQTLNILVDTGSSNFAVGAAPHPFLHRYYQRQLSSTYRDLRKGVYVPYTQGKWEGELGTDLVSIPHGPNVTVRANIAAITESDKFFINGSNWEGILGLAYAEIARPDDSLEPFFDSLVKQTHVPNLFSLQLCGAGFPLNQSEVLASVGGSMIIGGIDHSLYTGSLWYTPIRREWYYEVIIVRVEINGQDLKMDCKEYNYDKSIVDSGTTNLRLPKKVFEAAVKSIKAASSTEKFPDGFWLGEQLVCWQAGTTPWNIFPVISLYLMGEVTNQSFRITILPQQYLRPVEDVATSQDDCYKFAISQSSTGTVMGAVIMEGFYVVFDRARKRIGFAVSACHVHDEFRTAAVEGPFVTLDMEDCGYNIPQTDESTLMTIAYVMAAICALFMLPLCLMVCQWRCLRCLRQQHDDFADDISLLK

SMILES	inhibition (Beta-secretase 1 [1])	inhibition (Beta-secretase 1 [2])	inhibition (Beta-secretase 1 [3])	IC50 (Beta-secretase 1 [4])
CC(C)C[C@H](NC(=O)[C@@H](NC(=O)[C@@H](N)CNC(=O)c1[nH]c(=O)[nH]c(=O)c1F)C(C)C)C(=O)N[C@@H](Cc1ccccc1)[C@@H](O)C(=O)Nc1cccc(-c2nnn[nH]2)c1	–	–	–	6.5 nM
CC(C)C[C@H](NC(=O)[C@@H](NC(=O)[C@@H](N)CNC(=O)c1ccc(O)cc1O)C(C)C)C(=O)N[C@@H](Cc1ccccc1)[C@@H](O)C(=O)Nc1cccc(C(=O)O)c1	20%	59%	86%	–
CC(C)[C@H](NC(=O)[C@@H](N)CNC(=O)c1[nH]c(=O)[nH]c(=O)c1F)C(=O)N[C@@H](CC1CCCCC1)C(=O)N[C@@H](Cc1ccccc1)[C@@H](O)C(=O)Nc1cccc(-c2nnn[nH]2)c1	–	–	–	5.6 nM
CC(C)C[C@H](NC(=O)[C@@H](NC(=O)[C@@H](N)CNC(=O)[C@@H]1CC(=O)NC(=O)N1)C(C)C)C(=O)N[C@@H](Cc1ccccc1)[C@@H](O)C(=O)Nc1cccc(C(=O)O)c1	–	–	40%	–
CC(C)C[C@H](NC(=O)[C@@H](NC(=O)[C@@H](N)CNC(=O)c1nn[nH]n1)C(C)C)C(=O)N[C@@H](Cc1ccccc1)[C@@H](O)C(=O)Nc1cccc(-c2nn[nH]n2)c1	66%	98%	100%	–
CC(C)C[C@H](NC(=O)[C@@H](NC(=O)[C@@H](N)CNC(=O)c1cc[nH]c1)C(C)C)C(=O)N[C@@H](Cc1ccccc1)[C@@H](O)C(=O)Nc1cccc(C(=O)O)c1	–	–	69%	–
CC(C)C[C@H](NC(=O)[C@@H](NC(=O)[C@@H](N)CNC(=O)c1[nH]c(=O)[nH]c(=O)c1F)C(C)C)C(=O)N[C@@H](Cc1ccccc1)[C@@H](O)C(=O)Nc1cccc(-c2nn[nH]n2)c1	63%	98%	100%	–
CC(C)C[C@H](NC(=O)[C@@H](NC(=O)[C@@H](N)CNC(=O)c1ccccc1O)C(C)C)C(=O)N[C@@H](Cc1ccccc1)[C@@H](O)C(=O)Nc1cccc(C(=O)O)c1	29%	–	75%	–
CC(C)[C@H](NC(=O)[C@@H](N)CNC(=O)c1nnn[nH]1)C(=O)N[C@@H](CC1CCCCC1)C(=O)N[C@@H](Cc1ccccc1)[C@@H](O)C(=O)Nc1cccc(-c2nnn[nH]2)c1	–	–	–	3.3 nM
CC(C)C[C@H](NC(=O)[C@@H](NC(=O)[C@@H](N)CNC(=O)c1ccoc1)C(C)C)C(=O)N[C@@H](Cc1ccccc1)[C@@H](O)C(=O)Nc1cccc(C(=O)O)c1	4%	38%	82%	–
CC(C)C[C@H](NC(=O)[C@@H](NC(=O)[C@@H](N)CNC(=O)c1cc(O)cc(O)c1)C(C)C)C(=O)N[C@@H](Cc1ccccc1)[C@@H](O)C(=O)Nc1cccc(C(=O)O)c1	69%	60%	94%	–

More lines, now with the values ahead:

inhibition (Beta-secretase 1 [1])	inhibition (Beta-secretase 1 [2])	inhibition (Beta-secretase 1 [3])	IC50 (Beta-secretase 1 [4])	SMILES
65%	93%	99%	–	CC(C)C[C@H](NC(=O)[C@@H](NC(=O)[C@@H](N)CNC(=O)c1cc(O)ccc1O)C(C)C)C(=O)N[C@@H](Cc1ccccc1)[C@@H](O)C(=O)Nc1cccc(-c2nn[nH]n2)c1
0%	75%	89%	–	CC(C)C[C@H](NC(=O)[C@@H](NC(=O)[C@@H](N)CNC(=O)c1cccc(O)c1O)C(C)C)C(=O)N[C@@H](Cc1ccccc1)[C@@H](O)C(=O)Nc1cccc(C(=O)O)c1
46%	54%	90%	–	CC(C)C[C@H](NC(=O)[C@@H](NC(=O)[C@@H](N)CNC(=O)c1cc(O)nc(O)n1)C(C)C)C(=O)N[C@@H](Cc1ccccc1)[C@@H](O)C(=O)Nc1cccc(C(=O)O)c1
57%	49%	91%	–	CC(C)C[C@H](NC(=O)[C@@H](NC(=O)[C@@H](N)CNC(=O)c1cccc(O)c1)C(C)C)C(=O)N[C@@H](Cc1ccccc1)[C@@H](O)C(=O)Nc1cccc(C(=O)O)c1
58%	84%	98%	–	CC(C)C[C@H](NC(=O)[C@@H](NC(=O)[C@@H](N)CNC(=O)c1cc(O)ccc1O)C(C)C)C(=O)N[C@@H](Cc1ccccc1)[C@@H](O)C(=O)Nc1cccc(C(=O)O)c1
73%	72%	99%	–	CC(C)C[C@H](NC(=O)[C@@H](NC(=O)[C@@H](N)CNC(=O)c1nc(O)nc(O)c1I)C(C)C)C(=O)N[C@@H](Cc1ccccc1)[C@@H](O)C(=O)Nc1cccc(C(=O)O)c1
76%	82%	99%	–	CC(C)C[C@H](NC(=O)[C@@H](NC(=O)[C@@H](N)CNC(=O)c1nc(O)nc(O)c1F)C(C)C)C(=O)N[C@@H](Cc1ccccc1)[C@@H](O)C(=O)Nc1cccc(C(=O)O)c1
69%	92%	99%	–	CC(C)[C@H](NC(=O)[C@@H](N)CNC(=O)c1cc(O)ccc1O)C(=O)N[C@@H](CC1CCCCC1)C(=O)N[C@@H](Cc1ccccc1)[C@@H](O)C(=O)Nc1cccc(-c2nn[nH]n2)c1
–	–	13%	–	CC(C)C[C@H](NC(=O)[C@@H](NC(=O)[C@@H](N)CNC(=O)[C@H]1CC(=O)NC(=O)N1)C(C)C)C(=O)N[C@@H](Cc1ccccc1)[C@@H](O)C(=O)Nc1cccc(C(=O)O)c1
59%	98%	100%	–	CC(C)[C@H](NC(=O)[C@@H](N)CNC(=O)c1nn[nH]n1)C(=O)N[C@@H](CC1CCCCC1)C(=O)N[C@@H](Cc1ccccc1)[C@@H](O)C(=O)Nc1cccc(-c2nn[nH]n2)c1
84%	97%	100%	–	CC(C)[C@H](NC(=O)[C@@H](N)CNC(=O)c1[nH]c(=O)[nH]c(=O)c1F)C(=O)N[C@@H](CC1CCCCC1)C(=O)N[C@@H](Cc1ccccc1)[C@@H](O)C(=O)Nc1cccc(-c2nn[nH]n2)c1
